Data: paper PMC9867241, “Antioxidant and Cytotoxic Activity of New Polyphenolic Derivatives of Quinazolin-4(3H)-one: Synthesis and In Vitro Activities Evaluation” (Pharmaceutics, 2022)
≈ marks a conversion by molar mass, not a printed value.

Experiments:
[1] = NO˙ radical scavenging assay (Griess reaction); settings: PBS pH 7.4, sodium nitroprusside
Protocol: The scavenging of the NO˙ radical was performed by applying previously reported protocols. The in vitro protocol describes the decomposition of sodium nitroprusside in phosphate buffered saline (PBS) at pH = 7.4. The NO˙ radicals would be involved in a Griess reaction if they were not captured by the tested compounds. This reaction results from the formation of an azo dye, with maximum absorption at 546 nm. This azo dye is formed from sulfanilic acid and naphthyl ethylenediamine dichloride.

[2] = Fe^2+ chelation assay (ferrozine competition)
Protocol: In the protocol used for evaluating the Fe^2+ chelating ability of the compounds, the absorbances of the solutions were determined at λ = 562 nm, against a blank sample. The method was adapted from the initial report of Benzie and Strain et al., which was previously reported by our group. Using Equation (5), we calculated the iron chelation capacities of the 5a–d and 6a–d compounds:(5) iron chelation (%)=control absorbance−sample absorbance/control absorbance×100
The chelating capacity of the tested compounds of Fe^2+ was evaluated based on their competition for Fe^2+ with ferrozine.

[3] = Cu^2+ chelation assay (murexide competition)
Source text: With murexide as a chromophoric chelator, we performed the protocol followed for the evaluation of Cu^2+ chelating activities of the compounds using an adaptation of the method presented by Cesari et al. and Wu et al.. Using Equation (6), we calculated the copper chelation capacities of the 5a–d and 6a–d compounds:(6) copper chelation (%)=(A485/A520)control−(A485/A520)sample/(A485/A520)control×100
The evaluation of the Cu^2+ chelation activity of compounds was made based on the competition for Cu^2+ with murexide. The chelating activity of compounds for the cupric ions found in the current assay is significant for the pyrogallol derivatives, being quite close to EDTA-Na2.

[4] = ABTS˙+ radical scavenging assay
Protocol: (§1) The stock solutions (1 mg/mL) of the tested compounds and the controls were obtained, by dissolving the substances in dimethyl sulfoxide (DMSO). Using Jasco V-530, an UV-VIS spectrophotometer (Jasco International Co., Ltd., Tokyo, Japan), we performed the colorimetric determinations in low-volume single-use 10 mm width cuvettes.
(§2) The assays were performed in triplicate and the results are presented as averages for each assay.

[5] = DPPH˙ radical scavenging assay
Protocol: as §1, §2
The DPPH˙ radical scavenging assay is based on the transfer of one hydrogen from the analyzed compound to the violet stable free radical DPPH˙ (2,2-diphenyl-1-picrylhydrazyl), as we convert it into a yellow compound. The absorbance of the reagent mixed with samples presented inversely proportional values to the amount of DPPH˙ neutralized. The absorbance of the reagent was measured at λ = 517 nm, according to our previous reports. The assay was made in the presence of various concentrations of samples. The used protocol is based on the report of Brand-Williams et al..

[6] = system: LNCaP (prostate carcinoma) cells; experiment: Cytotoxicity, Alamar blue assay, LNCaP cells; assay type: cell-based; settings: Homo sapiens, 24 h exposure
Source text: (§3) Normal human foreskin (BJ) fibroblasts and two types of cancer cells, namely A549 (lung adenocarcinoma) and LNCaP (prostate carcinoma) purchased from American Type Culture Collection (Manassas, VA, USA), were used in the experiments. Each cell line was maintained in a different culture medium, depending on the metabolic necessities of the cells. BJ cells were maintained in Dulbecco’s modified Eagle’s medium (DMEM) with low glucose. A549 cells were maintained in DMEM with high glucose […], while LNCaP cells were grown in Roswell Park Memorial Institute (RPMI) 1640 medium with high glucose (5 g/L). All media used were supplemented with 10% fetal bovine serum (FBS) and were refreshed every two days. Cells were used in experiments or subcultured when they reached 70–80% confluence.
(§4) In 100 µL in 96-well plates, a number of 30,000 LNCaP cells, 15,000 A549 cells, and 7500 normal (BJ) cells were seeded. Because the cells have different sizes and volumes, the purpose of the different seedings was to achieve a confluency of 70–80% after 24 h. All types of cells were further exposed to the synthesized compounds (5a–d and 6a–d) for 24 h, at a concentration ranging from 12.5 to 100 µg/mL. Post-exposure, the media were removed, and the cells were washed with phosphate buffer saline (PBS). Their viability was evaluated using Alamar blue (AB) assay as previously described. Briefly, the cells were incubated with a 200 µM resazurin solution for 4 h. Using a Synergy 2 multi-mode microplate reader, we measured the fluorescence. The measurement was performed at λexcitation = 530/25 nm; λemission = 590/35 nm. We conducted the experiments using three biological replicates, each one including 6 technical replicates. As negative controls (NC), cells exposed to culture medium containing 0.2% DMSO were used. Compared to the NC (100%), the results were expressed as relative values. We used IC50 values for the potency evaluation, and calculated them for each cell line, using the dose-effect curves obtained by fitting the experimental data with a 4-parameter logistic curve.
(§5) Mean values ± standard deviation (SD) values of at least three biological replicates were used to calculate experimental data. One-way analysis of variance (ANOVA) with a post hoc Holm–Sidak test was used to statistically examine the data. Using SigmaPlot 11.0 software (Systat, Software Inc., Chicago, IL, USA), we performed the graphical display and data analysis. From a statistical point of view, the results were considered different, at values of p < 0.05.

[7] = system: normal human foreskin fibroblasts (BJ); experiment: Cytotoxicity, Alamar blue assay, BJ cells; assay type: cell-based; settings: Homo sapiens, Fibroblast; 24 h exposure, Alamar blue
Source text: as §3, §4, §5

[8] = system: A549 (lung adenocarcinoma) cells; experiment: Cytotoxicity, Alamar blue assay, A549 cells; assay type: cell-based; settings: Homo sapiens, 24 h exposure
Source text: as §3, §4, §5

Row | Compound | IC50 [4] | % of ABTS˙^+ Scavenging ([4]; 0.83 µg/mL) | % of ABTS˙^+ Scavenging ([4]; 1.67 µg/mL) | % of ABTS˙^+ Scavenging ([4]; 3.33 µg/mL) | % of ABTS˙^+ Scavenging ([4]; 4.99 µg/mL) | % of ABTS˙^+ Scavenging ([4]; 6.66 µg/mL) | % of ABTS˙^+ Scavenging ([4]; 9.99 µg/mL) | % of ABTS˙^+ Scavenging ([4]; 13.32 µg/mL) | IC50 [5] | IC50 (DPPH˙ scavenging) [5] | % of DPPH˙ Scavenging ([5]; 1.25 µg/mL) | % of DPPH˙ Scavenging ([5]; 2.5 µg/mL) | % of DPPH˙ Scavenging ([5]; 3.75 µg/mL) | % of DPPH˙ Scavenging ([5]; 5 µg/mL) | % of DPPH˙ Scavenging ([5]; 7.5 µg/mL) | % of DPPH˙ Scavenging ([5]; 10 µg/mL) | % of DPPH˙ Scavenging ([5]; 12.5 µg/mL) | % of DPPH˙ Scavenging ([5]; 15 µg/mL) | further results
1 | O=C(O)c1cc(O)ccc1O [Gentisic acid, reference compound] |  |  |  |  |  |  |  |  |  |  |  |  |  |  |  |  |  |  | % of NO˙ Scavenged [1]: 48.14%
2 | O=C([O-])CN(CCN(CC(=O)[O-])CC(=O)O)CC(=O)O.[Na+].[Na+] [EDTA-Na2, reference compound] |  |  |  |  |  |  |  |  |  |  |  |  |  |  |  |  |  |  | Ferrous ions Chelation Capacity (%) ([2]; 17.70 µg/mL): 1.32%; Ferrous ions Chelation Capacity (%) ([2]; 20.59 µg/mL): 20.59%; Ferrous ions Chelation Capacity (%) ([2]; 29.41 µg/mL): 42.89%; Ferrous ions Chelation Capacity (%) ([2]; 44.11 µg/mL): 95.10%; Ferrous ions Chelation Capacity (%) ([2]; 58.82 µg/mL): + (+ represents more than 95%); Ferrous ions Chelation Capacity (%) ([2]; 88.23 µg/mL): + (+ represents more than 95%); Ferrous ions Chelation Capacity (%) ([2]; 117.64 µg/mL): + (+ represents more than 95%); Ferrous ions Chelation Capacity (%) ([2]; 257.46 µg/mL): + (+ represents more than 95%); Ferrous ions Chelation Capacity (%) ([2]; 343.28 µg/mL): + (+ represents more than 95%); Cupric ions Chelation Capacity (%) ([3]; 3.36 µg/mL): 10.39%; Cupric ions Chelation Capacity (%) ([3]; 8.40 µg/mL): 22.68%; Cupric ions Chelation Capacity (%) ([3]; 16.80 µg/mL): 44.51%
3 | O=C1O[C@H]([C@@H](O)CO)C(O)=C1O [Ascorbic acid, reference compound] | 11.4 µM | 60.97% | 73.24% | 87.73% | + (+ represents more than 95%) | + (+ represents more than 95%) | + (+ represents more than 95%) | + (+ represents more than 95%) | 16.1 µM | 2.83 µg/mL (≈ 16.1 µM) | 35.11% | 47.45% | 55.71% | 64.21% | 79.16% | 94.39% | + (+ represents more than 95%) | + (+ represents more than 95%) | 
4 | COc1cccc2c1C(=O)c1c(O)c3c(c(O)c1C2=O)C[C@@](O)(C(=O)CO)C[C@@H]3O[C@H]1C[C@H](N)[C@H](O)[C@H](C)O1 [Doxorubicin, reference compound] |  |  |  |  |  |  |  |  |  |  |  |  |  |  |  |  |  |  | IC50 [6]: 0.74 µg/mL; IC50 [7]: > 7.5 µg/mL; IC50 [8]: 0.54 µg/mL
5 | Cc1c(C)c2c(c(C)c1O)CCC(C)(C(=O)O)O2 (stereo not shown) [Trolox, reference compound] | 18.6 µM | 38.66% | 53.16% | 66.54% | 94.57% | + (+ represents more than 95%) | + (+ represents more than 95%) | + (+ represents more than 95%) | 18.7 µM | 4.68 µg/mL (≈ 18.7 µM) | 17.01% | 28.53% | 40.42% | 53.87% | 75.85% | 94.85% | + (+ represents more than 95%) | + (+ represents more than 95%) | 
